Test systems include CCRF-CEM leukemia; SN12C renal; LOX IMVI melanoma; MALME-3M melanoma; RXF 393 renal; HCC-2998 colon; OVCAR-3 ovarian; SF-295 CNS; NCI-H226 lung; PC-3 prostate.
What all share (experiment): NCI tumour cell line growth inhibition, 48 h

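1) Cells in 96-well plates. 2) Compound, 48 h, 5 concentrations. 3) Linear interpolation between surrounding doses. 4) Unreached endpoint = highest concentration. The concentration for full growth arrest is given as TGI.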

With `CC1=NN(C(=O)c2ccc(Cl)cc2)C(=O)/C1=C/c1ccc(Cl)cc1`, the TGI in the test on CCRF-CEM leukemia, in the test with SN12C renal, in the test on LOX IMVI melanoma, with MALME-3M melanoma, with RXF 393 renal and in the test on HCC-2998 colon was above 100 µM in each case. For the same compound, the TGI in the test with OVCAR-3 ovarian and in the test with SF-295 CNS was above 100 µM each time.

`CCOC(=O)c1c(NCc2ccccc2)n(-c2ccccc2)c(=S)n(-c2ccccc2)c1=O`: the TGI in the test on CCRF-CEM leukemia, in the test on SN12C renal, in the test on LOX IMVI melanoma, in the test with MALME-3M melanoma, in the test with RXF 393 renal and in the test with HCC-2998 colon was above 100 µM each time. Moreover, the TGI in the test on OVCAR-3 ovarian, in the test on NCI-H226 lung and in the test on SF-295 CNS was above 100 µM each time.

Consider `O=C(N/N=C/c1ccc(Cl)cc1)c1cc(I)cc(I)c1O`, for which the TGI with CCRF-CEM leukemia, in the test with SN12C renal, with PC-3 prostate, in the test on LOX IMVI melanoma, with RXF 393 renal and with OVCAR-3 ovarian was above 100 µM each time. Moreover, the TGI in the test on NCI-H226 lung and with SF-295 CNS was above 100 µM in each case.

Turning to `O=c1[nH]cnc2sc(=S)c3c(c12)CCC3`, the TGI in the test with CCRF-CEM leukemia was 49 µM; in the test on SN12C renal, above 100 µM; in the test on PC-3 prostate it was above 100 µM; in the test on LOX IMVI melanoma, above 100 µM; in the test with MALME-3M melanoma it was 98.2 µM; in the test on RXF 393 renal, 63.4 µM. Besides, the TGI was 53.2 µM in the test with OVCAR-3 ovarian, 72.7 µM with NCI-H226 lung and above 100 µM with SF-295 CNS.

As to `O=c1[nH]c2cc3cccnc3c(Cl)c2nc1CBr`, the TGI in the test on CCRF-CEM leukemia turned out to be 31.1 µM; with SN12C renal, 27 µM; in the test on PC-3 prostate it was 37.4 µM; in the test with LOX IMVI melanoma it was 31.1 µM; with MALME-3M melanoma it was 65.5 µM; in the test on RXF 393 renal, 34.6 µM. The TGI was 35.5 µM in the test on OVCAR-3 ovarian, 56.1 µM in the test on NCI-H226 lung and 54.1 µM in the test on SF-295 CNS.

Regarding `Oc1ccc(Cl)cc1C1=N/C(=N\C/N=C2\N=C(c3cc(Cl)ccc3O)CC(c3ccccc3)N2)NC(c2ccccc2)C1` (stereo not drawn), the TGI in the test with CCRF-CEM leukemia, with PC-3 prostate, in the test with LOX IMVI melanoma, in the test on RXF 393 renal, in the test with HCC-2998 colon and in the test with OVCAR-3 ovarian was above 100 µM in each case. Also, the TGI with NCI-H226 lung and with SF-295 CNS was above 100 µM throughout.

`COc1cc(/C=N\NC(=O)C[N+](C)(C)C)cc(OC)c1OC`: the TGI in the test on CCRF-CEM leukemia, in the test with SN12C renal, in the test on PC-3 prostate, in the test with LOX IMVI melanoma, with MALME-3M melanoma and with HCC-2998 colon was above 10 µM in each case. Further, the TGI with OVCAR-3 ovarian and in the test on SF-295 CNS was above 10 µM throughout.

In the case of `C/C(=C\Cc1cc(O)ccc1O)CCc1c(C)c(O)c(O)c(C=O)c1C`, the TGI in the test on CCRF-CEM leukemia was 9.6 µM; with SN12C renal, 77.8 µM; in the test on MALME-3M melanoma it was 80.2 µM; in the test on RXF 393 renal, 43.8 µM; in the test with HCC-2998 colon, above 100 µM; in the test on OVCAR-3 ovarian, 43.2 µM. For the same compound, the TGI worked out at 98 µM in the test with NCI-H226 lung and 91.5 µM in the test with SF-295 CNS.

Take `CC(=O)c1ccc(N2CCN(C3=CC(=O)c4c(O)ccc(O)c4C3=O)CC2)cc1`: the TGI in the test on CCRF-CEM leukemia, in the test on PC-3 prostate, in the test with MALME-3M melanoma, with RXF 393 renal, in the test on HCC-2998 colon and in the test on OVCAR-3 ovarian was above 100 µM throughout. Also, in the test on SF-295 CNS, the TGI is above 100 µM.

In the case of `COc1cc(OC)cc(-n2c(N)c(-c3nc4ccccc4n3C)c3ccc([N+](=O)[O-])cc3c2=O)c1`, the TGI with SN12C renal, in the test on PC-3 prostate, in the test with LOX IMVI melanoma, in the test with HCC-2998 colon and with NCI-H226 lung was above 100 µM throughout.

Turning to `Cc1ccnc(NC(=S)Nc2cccc(Cl)c2)c1`, the TGI in the test on CCRF-CEM leukemia, in the test on SN12C renal, in the test with PC-3 prostate, in the test with LOX IMVI melanoma, with RXF 393 renal and with OVCAR-3 ovarian was above 100 µM in each case. In the test with SF-295 CNS, the TGI is above 100 µM.

Turning to `CN1Cc2c(nc(-c3ccc(Br)cc3)c[n+]2[O-])N(C)C1`, the TGI with CCRF-CEM leukemia, in the test on SN12C renal, in the test with MALME-3M melanoma, with RXF 393 renal, with OVCAR-3 ovarian and with NCI-H226 lung was above 100 µM in each case. The TGI in the test on SF-295 CNS is above 100 µM.

On to `COC1(C)C(=O)N2C1N(C(=O)OCc1ccccc1)CC2(C)C` (stereo not drawn), for which the TGI with CCRF-CEM leukemia, with SN12C renal, in the test with LOX IMVI melanoma, in the test with MALME-3M melanoma, in the test with RXF 393 renal and with HCC-2998 colon was above 100 µM each time. The TGI with OVCAR-3 ovarian, with NCI-H226 lung and in the test with SF-295 CNS was above 100 µM each time.

As for `O=S(=O)(O)c1cc(O)c2c(O)c(N=Nc3cccc4ccccc34)c(S(=O)(=O)O)cc2c1`, the TGI with SN12C renal, in the test on PC-3 prostate, with LOX IMVI melanoma, in the test with MALME-3M melanoma, with RXF 393 renal and in the test on OVCAR-3 ovarian was above 100 µM throughout. The TGI with NCI-H226 lung and in the test with SF-295 CNS was above 100 µM each time.

As for `CN(C)C(=O)C(F)(F)C(c1ccc(Br)cc1)C1C(=O)N(C)C(=O)N(C)C1=O` (stereo not drawn), the TGI with CCRF-CEM leukemia, in the test with PC-3 prostate, in the test with LOX IMVI melanoma, in the test on RXF 393 renal, in the test on HCC-2998 colon and with OVCAR-3 ovarian was above 100 µM in each case. The TGI in the test on NCI-H226 lung and in the test with SF-295 CNS was above 100 µM each time.
